The text below walks through data of article PMC12316308, “Interactions of substrates and phosphinyl containing inhibitors with bacterial and human zinc proteases” (PLOS One, 2025).

The target in assay [1] is T1, APMA activated MMP-9 (MMP-9(A)) (Homo sapiens, UniProt P14780).
T1 construct: made in house; host or cells: Sf9 and High Five insect cells
Kind of assay: Enzyme inhibition kinetics, fluorogenic substrate ES001. Format: biochemical. Conditions: for inhibitory effect on enzymatic activity: 100 μM compound, in words; for Ki: read-out: Ki ± s.d. (converted). As to the method:
(§1) The expression of recombinant full length proMMP-9 (rpMMP-9) in Sf9 and High Five insect cells and the purification were performed as previously described. The amount of proMMP-9 was estimated spectrophotometrically at 280 nm using ε280nm = […] [46] for the full length enzyme. Activation of the recombinant proMMP-9 was performed with APMA (auto-activation) and Mag-Trypsin as previously described, while the amount of active MMP-9 was determined by active site titration using galardin, also described previously.
(§2) Determination of reaction velocities. The substrate ES001 was used for APMA activated MMP-9 (MMP-9(A)), Mag-Trypsin activated MMP-9 (MMP-9(MT)) and MMP-14, while the substrate ES005 was used for ALN, PLN and TLN. The reaction velocities/initial rates (v) were determined at 37°C, at an excitation wavelength of 320 nm and an emission wavelength of 405 nm with a slit width of 10 nm using either a Perkin Elmer LS 50 Luminescence spectrometer and the FL WinLab Software Package (Perkin Elmer) or a Clario Star micro plate reader (CLARIOstar® BMG LABTECH).
(§3) The phosphinic compounds were dissolved in 100% DMSO to a final concentration of 10 mM. In all assays, a fixed substrate concentration of 4.0 µM was used in a total volume of 100 µL 0.1 M Hepes pH 7.5, 10 mM CaCl2, 0.005% Brij-35 and 1.0% DMSO. Fixed enzyme concentrations were as follows; 0.05 nM MMP-9(A), 0.05 nM MMP-9(MT), 1.0 nM MMP-14, 1.4 nM ALN, 0.5 nM PLN and 0.21 nM TLN. Time dependent inhibitory experiments, with and without 100 μM of phosphinic compounds, were performed as follows: Compounds were either pre-incubated with proteases for 15 and 30 minutes at room temperature before initiating the enzymatic reaction by adding the substrate, or not pre-incubated, meaning the reaction was initiated by adding the protease to the mixture of substrate and compound. Control tests without the compound present were performed under the same conditions. Reactions were monitored for 30 minutes at 37°C.
(§4) Determination of IC50 and Ki values. […] A fixed substrate concentration and the same enzyme and buffer conditions as described above were used. Enzymes, with or without inhibitors, were either pre-incubated for 30 minutes at room temperature or not pre-incubated, and initial rate assays were performed as described above. Assays were performed using a Clario Star microplate reader. The IC50 values with corresponding s.d. were calculated with GraphPad Prism 5 using equation 1 or 2, depending on the concentration range of the phosphinic compounds.
(§5) Equation 3 describe the relationship between IC50 and Ki values for substrate competitive inhibitors, considering the fixed substrate concentration and the enzyme’s Km value for the substrate: […]

The target of assay [2] is T2, Mag-Trypsin activated MMP-9 (MMP-9(MT)) (Homo sapiens, UniProt P14780).
T2 construct: made in house; host or cells: Sf9 and High Five insect cells
The description is as above. Format: biochemical. The settings on record: for inhibitory effect on enzymatic activity: 100 μM compound, in words; for Ki: read-out: Ki ± s.d. (converted). On the procedure: as §1, §2, §3, §4, §5

The target of assay [3] is T3, human MT1-MMP/MMP-14 (catalytic domain) (Homo sapiens, UniProt P50281).
T3 construct: human MT1-MMP/MMP-14 (catalytic domain); purchased Calbiochem (San Diego, CA, USA)
The description is as above. The assay is classed as biochemical. The settings on record: for inhibitory effect on enzymatic activity: in words; for Ki: read-out: Ki ± s.d. (converted). On the procedure: as §2, §3, §4, §5

Assay [4] has as its target T4, thermolysin (TLN) (Bacillus thermoproteolyticus, UniProt P00800).
T4 construct: purchased Calbiochem (San Diego, CA, USA)
Briefly: Enzyme inhibition kinetics, fluorogenic substrate ES005. Format: biochemical. The settings on record: for inhibitory effect on enzymatic activity: 100 μM compound, in words; for Ki: read-out: Ki ± s.d. As to the method:
as §2, §3, §4, §5

The target of another assay is T5, aureolysin (ALN) (Staphylococcus aureus, UniProt P81177).
T5 construct: purchased BioCentrum Ltd (Kraków, Poland)
Described as above. Format: biochemical. The settings on record: for inhibitory effect on enzymatic activity: 100 μM compound, in words. On the procedure: as §2, §3, §4, §5

The target in the next assay is T6, pseudolysin (PLN, LasB) (Pseudomonas aeruginosa, UniProt P14756).
T6 construct: purchased Calbiochem (San Diego, CA, USA)
The description is as above. The assay is classed as biochemical. The settings on record: for inhibitory effect on enzymatic activity: 100 μM compound, in words. On the procedure:
as §2, §3, §4, §5

For assay [5], the target named is T4, thermolysin (TLN). Kind of assay: MALDI-TOF MS analysis of ES005 cleavage. Format: biochemical. Conditions: One μM galardin, 100 nM TLN. On the procedure:
MALDI-TOF MS spectra were recorded for samples containing different enzyme and substrate concentrations at various time points using an Autoflex Speed instrument (Bruker Daltonik GmbH, Leipzig, Germany) equipped with a 355-nm nitrogen laser for desorption and ionization. The ionization matrix, HCCA, was dissolved to 10 mg/mL in a standard solvent (50% MeCN, 47.5% MQ-water, and 2.5% TFA) by vigorous vortexing. Prior to the MALDI run, a main buffer (0.1 M Hepes, pH 7.5, 10 mM CaCl2) was used to dilute TLN to stock concentrations of 1000, 100 and 50 nM, ES005–500 µM, and galardin to 10 µM. All stocks solutions were kept on ice. For the 0 min incubation, 1 µL TLN and 1 µL galardin were preincubated at 37°C in 8 µL of the main buffer for 10 min before adding 1 µL of ES005. For all other time points, 1 µL of ES005 was added to tubes containing 8 µL buffer and 1 µL of TLN at different concentrations, followed by incubation at 37°C. At each timepoint (0, 1, 3, 5, 10, 20, 30, 60, 120 min), 1 µL of galardin was added to stop enzyme activity. After the final incubation, 1 µL aliquots from each timepoint were mixed with an equal volume of HCCA and spotted onto a MALDI plate. […] The resulting mass spectra were analysed using flexAnalysis software (v3.3, Bruker).

Another assay addresses T7, MMP-9(A) (Homo sapiens, UniProt P14780).
T7 construct: made in house; host or cells: Sf9 and High Five insect cells
Also on record: method as in PMID 33757387. The settings on record: 1% DMSO; cited from earlier work.

The target of another assay is T8, MMP-14 (Homo sapiens, UniProt P50281).
T8 construct: human MT1-MMP/MMP-14 (catalytic domain); purchased Calbiochem (San Diego, CA, USA)
Also on record: method as in PMID 33757387. Conditions: 1% DMSO; cited from earlier work.

Each structure is given as a SMILES string. Read-outs that look alike come from different tables or passages of the source. Where a SMILES comes first, the peptide text is derived from it. [ ]: non-standard residue; d: D form. The star is where a group is joined. Dnp = O=[N+]([O-])c1ccc(*)c([N+](=O)[O-])c1; Mca = COc1ccc2c(CC(=O)*)cc(=O)oc2c1; Dap = NC[C@H](N)C(=O)O

T4 sequence (P00800 233-548): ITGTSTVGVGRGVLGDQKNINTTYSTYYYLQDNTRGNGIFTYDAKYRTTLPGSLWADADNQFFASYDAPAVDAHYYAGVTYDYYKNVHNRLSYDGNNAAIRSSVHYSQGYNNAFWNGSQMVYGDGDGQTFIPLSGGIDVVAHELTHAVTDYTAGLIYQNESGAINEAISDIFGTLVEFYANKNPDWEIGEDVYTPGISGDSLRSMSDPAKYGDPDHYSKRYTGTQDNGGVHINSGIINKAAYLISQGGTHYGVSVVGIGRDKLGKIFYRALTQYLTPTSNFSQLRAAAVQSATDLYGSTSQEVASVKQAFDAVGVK
T6 sequence (P14756 198-498): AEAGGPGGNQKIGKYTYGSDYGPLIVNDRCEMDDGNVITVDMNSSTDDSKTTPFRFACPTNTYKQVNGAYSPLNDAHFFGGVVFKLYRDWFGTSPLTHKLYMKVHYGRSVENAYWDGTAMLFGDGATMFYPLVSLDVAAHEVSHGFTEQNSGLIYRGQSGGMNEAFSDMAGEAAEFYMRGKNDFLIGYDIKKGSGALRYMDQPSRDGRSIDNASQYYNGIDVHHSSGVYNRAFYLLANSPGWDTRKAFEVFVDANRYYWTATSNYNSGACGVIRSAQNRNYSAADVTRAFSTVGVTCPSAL
T5 sequence (P81177 209-509): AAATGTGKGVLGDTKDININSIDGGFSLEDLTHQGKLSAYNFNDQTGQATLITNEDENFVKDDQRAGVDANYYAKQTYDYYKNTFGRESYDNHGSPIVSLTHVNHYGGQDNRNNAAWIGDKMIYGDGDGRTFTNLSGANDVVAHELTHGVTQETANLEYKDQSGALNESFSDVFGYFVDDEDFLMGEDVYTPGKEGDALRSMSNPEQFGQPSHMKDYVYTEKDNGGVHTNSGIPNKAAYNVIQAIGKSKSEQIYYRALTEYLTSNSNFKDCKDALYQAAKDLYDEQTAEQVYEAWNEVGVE
T1 sequence (P14780 107-707 limits assumed): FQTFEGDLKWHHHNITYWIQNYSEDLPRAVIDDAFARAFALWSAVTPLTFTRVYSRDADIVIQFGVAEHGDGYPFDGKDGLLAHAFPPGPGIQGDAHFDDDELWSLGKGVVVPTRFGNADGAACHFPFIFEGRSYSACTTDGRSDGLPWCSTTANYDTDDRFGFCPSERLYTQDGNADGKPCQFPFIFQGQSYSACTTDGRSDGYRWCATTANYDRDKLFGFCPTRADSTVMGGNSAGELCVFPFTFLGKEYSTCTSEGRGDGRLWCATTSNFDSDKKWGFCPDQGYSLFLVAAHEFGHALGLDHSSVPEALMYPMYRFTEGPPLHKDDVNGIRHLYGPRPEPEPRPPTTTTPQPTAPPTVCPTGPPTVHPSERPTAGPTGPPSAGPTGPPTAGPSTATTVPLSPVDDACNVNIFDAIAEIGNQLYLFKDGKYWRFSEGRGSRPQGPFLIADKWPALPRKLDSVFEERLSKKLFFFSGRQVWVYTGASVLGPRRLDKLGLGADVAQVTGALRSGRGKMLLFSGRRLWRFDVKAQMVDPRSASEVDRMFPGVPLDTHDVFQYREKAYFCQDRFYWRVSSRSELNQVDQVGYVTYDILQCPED
T2 sequence (P14780 107-707 limits assumed): as above
T7 sequence (P14780 107-707 limits assumed): as above

In the case of `CCOC(=O)C(CO)CP(=O)(O)C(Cc1ccccc1)NC(=O)OCc1ccccc1` (stereo not shown) [H-5], the “inhibitory effect on enzymatic activity” value in assay [1] (MMP-9(A)) is on record as “weak or no inhibition”; in assay [2] (MMP-9(MT)) it was “weak or no inhibition”; in assay [3] (MMP-14, 100 μM compound) it was “weak or no inhibition”; against thermolysin (TLN) [4] (TLN), “weak or no inhibition”; at aureolysin (ALN) (ALN), “weak or no inhibition”; at pseudolysin (PLN, LasB) (PLN), “weak or no inhibition”. The inhibitory constant (Ki) is ≥ 100 µM in assay [1]; ≥ 100 µM in assay [2]; ≥ 100 µM in assay [3]; ≥ 100 µM at thermolysin (TLN) [4]; ≥ 100 µM on aureolysin (ALN); ≥ 100 µM at pseudolysin (PLN, LasB).
As to `CC(=O)NC(CC(C)C)C(=O)CC(C)P(=O)(O)CC(Cc1ccccc1)C(=O)O` (stereo not shown) [H-3], the “inhibitory effect on enzymatic activity” value is given as “weak or no inhibition” in assay [1] (MMP-9(A)); “weak or no inhibition” in [2] (MMP-9(MT)); “weak or no inhibition” in [3] (MMP-14, 100 μM compound); “weak or no inhibition” against thermolysin (TLN) [4] (TLN); “weak or no inhibition” at aureolysin (ALN) (ALN); “weak or no inhibition” on pseudolysin (PLN, LasB) (PLN). Further, the Ki is ≥ 100 µM in assay [1] (MMP-9(A), substrate ES001 4.0 µM, 0.1 M Hepes pH 7.5, 37°C, 1.0% DMSO, Ki from IC50 (Eqn. 3)); ≥ 100 µM in assay [2] (MMP-9(MT), substrate ES001 4.0 µM, 0.1 M Hepes pH 7.5, 37°C, 1.0% DMSO, Ki from IC50 (Eqn. 3)); ≥ 100 µM in assay [3] (MMP-14, substrate ES001 4.0 µM, 0.1 M Hepes pH 7.5, 37°C, 1.0% DMSO, Ki from IC50 (Eqn. 3)); ≥ 100 µM at thermolysin (TLN) [4] (TLN, substrate ES005 4.0 µM, 0.1 M Hepes pH 7.5, 37°C, 1.0% DMSO, Ki from IC50 (Eqn. 3)); ≥ 100 µM at aureolysin (ALN) (read-out: Ki ± s.d., ALN, substrate ES005 4.0 µM, 0.1 M Hepes pH 7.5, 37°C, 1.0% DMSO, Ki from IC50 (Eqn. 3)); ≥ 100 µM at pseudolysin (PLN, LasB) (read-out: Ki ± s.d., PLN, substrate ES005 4.0 µM, 0.1 M Hepes pH 7.5, 37°C, 1.0% DMSO, Ki from IC50 (Eqn. 3)). Besides, in assay [3] (MMP-14, 100 μM compound, pre-incubation at room temperature), the “pre-incubation time after which inhibition stabilizes (slow binding)” value came to 15 min.
With `CNC(=O)[C@H](Cc1c[nH]c2ccccc12)NC(=O)[C@@H](CC(=O)NO)CC(C)C` [galardin], the “inhibition of TLN (stopping of substrate cleavage)” value against thermolysin (TLN) [5] is listed as “not sufficient to completely inhibit”.
`COc1ccc2c(CC(=O)N3CCC[C@H]3C(=O)N[C@@H](CC(C)C)C(=O)NCC(=O)N[C@@H](CC(C)C)C(=O)N[C@@H](CNc3ccc([N+](=O)[O-])cc3[N+](=O)[O-])C(=O)N[C@@H](C)C(=O)N[C@@H](CCCNC(=N)N)C(N)=O)cc(=O)oc2c1` [ES001, Mca-Pro-Leu-Gly-Leu-Dpa-Ala-Arg-NH2] (Mca-PLGL[Dap](Dnp)AR-NH2): the Michaelis constant (Km) was 4 ± 1 µM on MMP-9(A) and 4.9 ± 0.4 µM at MMP-14.
In the case of `CC(NC(=O)OCc1ccccc1)P(=O)(O)CC(Cc1ccccc1)C(=O)O` (stereo not shown) [H-4], the “inhibitory effect on enzymatic activity” value in assay [1] (MMP-9(A)) is recorded as “weak or no inhibition”; in assay [2] (MMP-9(MT)), “weak or no inhibition”; in [3] (MMP-14, 100 μM compound), “weak or no inhibition”; against thermolysin (TLN) [4] (TLN), “weak or no inhibition”; against aureolysin (ALN) (ALN), “weak or no inhibition”; at pseudolysin (PLN, LasB) (PLN), “weak or no inhibition”. Besides, the inhibition constant (Ki) was ≥ 100 µM in assay [1]; ≥ 100 µM in assay [2]; ≥ 100 µM in [3]; ≥ 100 µM on thermolysin (TLN) [4]; ≥ 100 µM at aureolysin (ALN); ≥ 100 µM on pseudolysin (PLN, LasB).

What is called Ki is a dissociation constant, usually derived from enzyme kinetics or from competition with a known ligand. What is called Km is the concentration of substrate that gives half-maximal velocity.
